Experimental data as given in ChEMBL document CHEMBL6153138, “Discovery of Novel Aromatic Urea-Imidazole Salt Derivatives for Cancer Therapy via Targeting ERK1/2” (J Med Chem, 2025).
Active and inactive are the calls of the source. No cut-off for these calls is given here.

Columns and labels:
MCF7 [1] = assay: Antiproliferative activity against human MCF7 cells incubated for 48 hrs by CCK-8 method; format: functional, cell-based; settings: MCF7, 48 h
4T1 [2] = assay: Antiproliferative activity against mouse 4T1 cells incubated for 48 hrs by CCK-8 method; format: functional, cell-based; settings: 4T1, 48 h
[3] = Half life in Sprague-Dawley rat at 10 mg/kg, po by LC-MS/MS analysis; format: ADME, organism-based; settings: in vivo
[4] = AUC (0 to t) in Sprague-Dawley rat at 10 mg/kg, po by LC-MS/MS analysis; format: ADME, organism-based; settings: in vivo
[5] = biological target: T1, Mitogen-activated protein kinase; ERK1/ERK2 (Homo sapiens) (UniProt P27361+P28482); assay: Induction of thermal stabilization of ERK1/2 in human MCF7 cells at 10 uM incubated for 3 hrs at 65 to 75 degree C by […] method; format: cell-based
[6] = biological target: T1, Mitogen-activated protein kinase; ERK1/ERK2 (Homo sapiens); assay: Binding affinity to ERK1/2 in human MCF7 cells assessed as protection of pronase-mediated protein degradation at 1 to 100 uM pre-incubated with compound for 1 hr followed by pronase digestion for 15 mins by DARTS analysis; format: cell-based; settings: dose 1-100 µM, time 75.0 min
MCF7 [7] = assay: Upregulation of ERK1/2 phosphorylation expression in human MCF7 cells at 2 uM measured after 12 to 24 hrs by Western blot analysis; format: functional, cell-based; settings: time 12-24 hrs
MCF7 [8] = assay: Upregulation of ERK1/2 phosphorylation expression in human MCF7 cells measured after 30 mins to 4 hrs by Western blot analysis; format: functional, cell-based; settings: dose 0.5-2 µM, time 30-240 min
MCF7 [9] = assay: Downregulation of total c-Myc expression in human MCF7 cells at 0.5 to 2 uM measured after 30 mins to 4 hrs by Western blot analysis; format: functional, cell-based; settings: dose 0.5-2 µM, time 30-240 min
MCF7 [10] = assay: Downregulation of p90RSK phosphorylation expression in human MCF7 cells at 0.5 to 2 uM measured after 30 mins to 4 hrs by Western blot analysis; format: functional, cell-based; settings: dose 0.5-2 µM, time 30-240 min
[11] = biological target: T2, Ribosomal protein S6 kinase alpha-1 (Homo sapiens, UniProt Q15418); assay: Inhibition of RSK1 (unknown origin) incubated for 60 mins by luminescence based ADP-Glo kinase assay
MCF7 [12] = assay: Activation of ERK1/2 pathway in human MCF7 cells assessed as increase in EGF-induced c-Myc phosphorylation at 2 uM incubated for 30 mins by Western blot analysis; format: cell-based
MCF7 [13] = assay: Activation of ERK1/2 pathway in human MCF7 cells assessed as increase in EGF-induced p90RSK phosphorylation at 2 uM incubated for 30 mins by Western blot analysis; format: cell-based
[14] = biological target: Vascular endothelial growth factor receptor 1 (Homo sapiens) (UniProt P17948); assay: Inhibition of human FLT1 at 10000 nM by DiscoverX KINOMEscan assay relative to control
[15] = biological target: T2, Ribosomal protein S6 kinase alpha-1; assay: Inhibition of human RSK1 at 10000 nM by DiscoverX KINOMEscan assay relative to control
MCF7 [16] = assay: Induction of apoptosis in human MCF7 cells assessed as increase in PARP1 level at 0.5 to 2 uM by Western blot analysis; format: functional, cell-based; settings: dose 0.5-2 µM
Mitochondrial membrane [17] = assay: Induction of mitochondrial membrane potential loss in human MCF7 cells assessed as reduction in JC-1 aggregates by measuring decrease in red fluorescence at 0.5 uM by flow cytometry analysis (reference value: 24.7%); format: cell membranes; design: scale not given: the % may be the effect or the level left
Mitochondrial membrane [18] = assay: Induction of mitochondrial membrane potential loss in human MCF7 cells assessed as increase in JC-1 monomers by measuring increase in green fluorescence at 2 uM by flow cytometry analysis (reference value: 38.0%); format: cell membranes
MCF7 [19] = assay: Induction of autophagy in human MCF7 cells assessed as increase in MDC positive cells at 0.5 to 2 uM by MDC staining based microscopic analysis; format: functional, cell-based; settings: dose 0.5-2 µM
MCF7 [20] = assay: Induction of autophagy in human MCF7 cells assessed as increase in LC3B expression at 1 uM incubated for 48 hrs in presence of 3-methyladenine by Western blot analysis; format: functional, cell-based
MCF7 [21] = assay: Induction of autophagic flux in human MCF7 cells assessed as appearance of multi membrane structure at 0.5 to 2 uM by TEM based analysis; format: functional, cell-based; settings: dose 0.5-2 µM
MCF7 [22] = assay: Inhibition of colony formation in human MCF7 cells at 1 uM incubated for 6 hrs in presence of chloroquine by crystal violet staining based analysis; format: functional, cell-based
[23] = Toxicity in female BALB/c mouse assessed as change in body weight at 25 to 50 mg/kg, po qd measured after 18 days; format: organism-based; settings: in vivo, 432 h, dose 25-50 mg/kg, time 18 day
[24] = Toxicity in female BALB/c mouse assessed as effect on spleen at 25 to 50 mg/kg, po qd measured after 18 days by H and E staining based analysis; format: organism-based; settings: in vivo, 432 h, dose 25-50 mg/kg, time 18 day
[25] = Toxicity in female BALB/c mouse assessed as effect on lung at 25 to 50 mg/kg, po qd measured after 18 days by H and E staining based analysis; format: organism-based; settings: in vivo, 432 h, dose 25-50 mg/kg, time 18 day
[26] = Toxicity in female BALB/c mouse assessed as effect ALP level in serum at 25 to 50 mg/kg, po qd measured after 18 days by biochemical analysis; format: organism-based; settings: in vivo, 432 h, dose 25-50 mg/kg, time 18 day
[27] = Toxicity in female BALB/c mouse assessed as effect TG level in serum at 25 to 50 mg/kg, po qd measured after 18 days by biochemical analysis; format: organism-based; settings: in vivo, 432 h, dose 25-50 mg/kg, time 18 day
4T1 [28] = assay: Antitumor activity against mouse 4T1 cells implanted in female BALB/c mouse model assessed as reduction in tumor volume at 50 mg/kg, po qd measured for 18 days in presence of chloroquine; format: functional, organism-based; settings: time 18.0 day
[29] = Toxicity in female BALB/c mouse assessed as change in body weight at 50 mg/kg, po qd measured after 18 days in presence of chloroquine; format: organism-based; settings: in vivo, 432 h, time 18 day
[30] = Toxicity in female BALB/c mouse assessed as effect on heart at 50 mg/kg, po qd measured after 18 days in presence of chloroquine by H and E staining based analysis; format: organism-based; settings: in vivo, 432 h, time 18 day
[31] = Toxicity in female BALB/c mouse assessed as effect on lung at 50 mg/kg, po qd measured after 18 days in presence of chloroquine by H and E staining based analysis; format: organism-based; settings: in vivo, 432 h, time 18 day
4T1 [32] = assay: Antitumor activity against mouse 4T1 cells implanted in female BALB/c mouse model assessed as reduction in PCNA expression at 50 mg/kg, po in presence of chloroquine by immunohistochemical analysis; format: functional, organism-based
4T1 [33] = assay: Antitumor activity against mouse 4T1 cells implanted in female BALB/c mouse model assessed as increase in LC3B expression at 50 mg/kg, po in presence of chloroquine by immunohistochemical analysis; format: functional, organism-based
4T1-Luc [34] = assay: Anti-metastatic activity in mouse 4T1-Luc cells assessed as reduction in fluorescence intensity at 25 to 50 mg/kg, po measured after 16 days; format: functional, organism-based; settings: dose 25-50 mg/kg, time 16.0 day
4T1-Luc [35] = assay: Anti-metastatic activity in mouse 4T1-Luc cells assessed as reduction in number of tumor metastatic nodules at 25 to 50 mg/kg, po measured after 20 days; format: functional, organism-based; settings: dose 25-50 mg/kg, time 20.0 day
4T1-Luc [36] = assay: Anti-metastatic activity in mouse 4T1-Luc cells assessed as reduction in enlarged alveolar space at 25 to 50 mg/kg, po measured after 20 days by H and E staining based analysis; format: functional, organism-based; settings: dose 25-50 mg/kg, time 20.0 day

T1 sequence (P27361 whole entry, looked up): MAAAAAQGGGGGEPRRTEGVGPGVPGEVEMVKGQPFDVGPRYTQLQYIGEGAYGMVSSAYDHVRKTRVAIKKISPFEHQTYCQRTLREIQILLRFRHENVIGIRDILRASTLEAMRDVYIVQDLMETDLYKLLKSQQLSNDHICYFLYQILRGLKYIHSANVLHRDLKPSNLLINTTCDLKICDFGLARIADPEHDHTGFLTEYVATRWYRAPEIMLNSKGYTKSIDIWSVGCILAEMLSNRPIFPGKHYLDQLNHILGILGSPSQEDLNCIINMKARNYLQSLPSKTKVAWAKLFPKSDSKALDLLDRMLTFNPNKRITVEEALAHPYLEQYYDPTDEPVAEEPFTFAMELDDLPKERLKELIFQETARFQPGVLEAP
T1 sequence (P28482 whole entry, looked up): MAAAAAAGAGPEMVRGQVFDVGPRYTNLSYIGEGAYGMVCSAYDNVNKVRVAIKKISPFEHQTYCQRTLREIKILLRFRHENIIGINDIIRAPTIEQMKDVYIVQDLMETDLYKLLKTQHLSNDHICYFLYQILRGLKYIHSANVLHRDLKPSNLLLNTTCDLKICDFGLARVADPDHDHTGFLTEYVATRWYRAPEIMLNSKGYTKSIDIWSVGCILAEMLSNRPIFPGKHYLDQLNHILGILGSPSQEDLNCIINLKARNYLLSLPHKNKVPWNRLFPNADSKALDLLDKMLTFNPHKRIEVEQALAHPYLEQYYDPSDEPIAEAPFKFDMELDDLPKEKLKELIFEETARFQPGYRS
T2 sequence (Q15418 whole entry): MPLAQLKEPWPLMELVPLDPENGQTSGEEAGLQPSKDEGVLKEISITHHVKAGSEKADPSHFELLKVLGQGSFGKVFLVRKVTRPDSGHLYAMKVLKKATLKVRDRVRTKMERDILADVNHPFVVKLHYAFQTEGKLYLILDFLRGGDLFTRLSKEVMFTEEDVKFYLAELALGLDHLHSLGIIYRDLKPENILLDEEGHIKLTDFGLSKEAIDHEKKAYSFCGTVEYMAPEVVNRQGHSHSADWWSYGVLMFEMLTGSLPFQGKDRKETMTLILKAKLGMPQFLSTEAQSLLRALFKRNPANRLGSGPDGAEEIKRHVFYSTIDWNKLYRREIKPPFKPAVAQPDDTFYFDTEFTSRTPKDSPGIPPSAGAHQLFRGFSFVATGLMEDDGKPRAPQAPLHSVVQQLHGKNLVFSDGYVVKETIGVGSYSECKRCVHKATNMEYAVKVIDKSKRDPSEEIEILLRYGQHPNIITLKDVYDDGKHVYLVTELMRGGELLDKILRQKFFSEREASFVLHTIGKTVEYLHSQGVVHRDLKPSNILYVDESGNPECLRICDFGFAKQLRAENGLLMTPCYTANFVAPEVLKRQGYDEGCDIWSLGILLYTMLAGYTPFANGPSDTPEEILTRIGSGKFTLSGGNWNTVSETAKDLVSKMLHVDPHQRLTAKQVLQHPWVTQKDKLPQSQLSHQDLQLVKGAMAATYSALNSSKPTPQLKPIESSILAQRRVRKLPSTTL
Chain of Vascular endothelial growth factor receptor 1 (Homo sapiens) (P17948 whole entry): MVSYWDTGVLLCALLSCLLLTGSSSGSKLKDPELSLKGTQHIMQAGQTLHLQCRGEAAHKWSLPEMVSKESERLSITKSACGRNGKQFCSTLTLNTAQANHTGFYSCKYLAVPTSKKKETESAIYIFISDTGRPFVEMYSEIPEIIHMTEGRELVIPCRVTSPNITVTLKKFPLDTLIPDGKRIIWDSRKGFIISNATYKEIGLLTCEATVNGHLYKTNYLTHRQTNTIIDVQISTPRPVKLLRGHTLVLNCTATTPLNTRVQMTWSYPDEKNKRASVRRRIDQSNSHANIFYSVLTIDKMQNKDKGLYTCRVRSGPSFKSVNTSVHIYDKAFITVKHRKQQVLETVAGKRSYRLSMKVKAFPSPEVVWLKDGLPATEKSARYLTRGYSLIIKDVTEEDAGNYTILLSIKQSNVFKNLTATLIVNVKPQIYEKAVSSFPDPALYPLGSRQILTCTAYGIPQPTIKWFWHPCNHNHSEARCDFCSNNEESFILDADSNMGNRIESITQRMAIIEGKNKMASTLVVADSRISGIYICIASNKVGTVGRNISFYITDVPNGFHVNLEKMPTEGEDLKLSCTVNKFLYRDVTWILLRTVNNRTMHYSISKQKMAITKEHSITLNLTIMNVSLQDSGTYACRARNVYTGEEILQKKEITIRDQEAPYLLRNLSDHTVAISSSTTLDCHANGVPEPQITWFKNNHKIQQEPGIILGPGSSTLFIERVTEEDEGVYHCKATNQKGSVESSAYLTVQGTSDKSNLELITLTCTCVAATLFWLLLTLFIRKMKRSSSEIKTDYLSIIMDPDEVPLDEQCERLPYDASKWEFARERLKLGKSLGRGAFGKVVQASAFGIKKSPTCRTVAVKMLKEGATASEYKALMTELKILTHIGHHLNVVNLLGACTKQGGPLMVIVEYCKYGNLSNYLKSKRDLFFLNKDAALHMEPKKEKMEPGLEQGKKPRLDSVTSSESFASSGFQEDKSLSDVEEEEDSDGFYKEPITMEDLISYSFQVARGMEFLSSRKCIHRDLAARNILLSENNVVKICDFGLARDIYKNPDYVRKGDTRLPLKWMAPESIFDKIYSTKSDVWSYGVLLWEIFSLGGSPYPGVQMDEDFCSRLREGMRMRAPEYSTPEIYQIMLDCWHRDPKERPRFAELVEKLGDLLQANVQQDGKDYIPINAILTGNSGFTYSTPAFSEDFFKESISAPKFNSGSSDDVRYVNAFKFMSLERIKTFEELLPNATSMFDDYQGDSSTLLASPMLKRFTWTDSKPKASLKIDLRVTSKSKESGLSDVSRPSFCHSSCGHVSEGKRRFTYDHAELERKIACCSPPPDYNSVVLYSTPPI

`O=C(Nc1cc(C(F)(F)F)cc(C(F)(F)F)c1)N[C@@H](Cc1ccccc1)Cn1c[n+](Cc2ccc3ccccc3c2)c2ccccc21.[Br-]` showed an IC50 (MCF7 [1]) of 670 nM, an IC50 (4T1 [2]) of 2760 nM and a half-life [3] of 151 min. The AUC(0-t) [4] was 3910 ng·h/mL, the Activity [5] was “Active” and the Activity [6] was “Active”. The Activity (MCF7 [7]) was “inactive”, the Activity (MCF7 [8]) was “Dose-dependent-effect” and the Activity (MCF7 [9]) was “Active”. For the same compound, the Activity (MCF7 [10]) was “Active”, the IC50 [11] was 674 nM and the Activity (MCF7 [12]) was “inactive”. For the same compound, the Activity (MCF7 [13]) was “inactive”, the inhibition [14] was 19% and the inhibition [15] was 8%. For the same compound, the Activity (MCF7 [16]) was “Active”, the Activity (Mitochondrial membrane [17]) was 17.2% and the Activity (Mitochondrial membrane [18]) was 52.4%. For the same compound, the Activity (MCF7 [19]) was “Active”, the Activity (MCF7 [20]) was “inactive” and the Activity (MCF7 [21]) was “Active”. The inhibition (MCF7 [22]) was “Active”, the Activity [23] was “Non-toxic” and the Activity [24] was “Non-toxic”. For the same compound, the Activity [25] was “Non-toxic”, the Activity [26] was “Non-toxic” and the Activity [27] was “Non-toxic”. For the same compound, the Activity (4T1 [28]) was “Active”, the Activity [29] was “Non-toxic” and the Activity [30] was “Non-toxic”. For the same compound, the Activity [31] was “Non-toxic”, the Activity (4T1 [32]) was “Active” and the Activity (4T1 [33]) was “Active”. For the same compound, the Activity (4T1-Luc [34]) was “Active”, the Activity (4T1-Luc [35]) was “Active” and the Activity (4T1-Luc [36]) was “Active”.
